From patent US20250098679A1, “HERBICIDAL PYRIDONE DERIVATIVES” (SYNGENTA CROP PROTECTION AG, priority 2021, published 2025)

Key:
Assay type in all cases: in vivo
[1] = tested on: Zea mays (ZEAMX); experiment: Pre-emergence Test, Zea mays (ZEAMX); settings: evaluated after 13 days
[2] = tested on: Echinochloa crus-galli (ECHCG); experiment: Post-emergence Test, Echinochloa crus-galli (ECHCG); set-up: key to percentage damage caused to the plant, ECHCG (five-point scale): 5=81-100%, 4=61-80%, 3=41-60%, 2=21-40%, 1=0-20% damage; settings: evaluated after 13 days; for percentage damage caused to the plant, ECHCG (five-point scale): 250 g/Ha
In short: (§1)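 Percent plant damage was rated 13 days post-application on a 1–5 scale (1=0-20%, 5=81-100%). Application used an aqueous acetone (50:50)/0.5% Tween 20 spray, normally 1000 g/ha, with controlled glasshouse conditions (24/16 °C, 14 h light, 65% humidity).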

[3] = tested on: Ipomoea hederacea (IPOHE); experiment: Post-emergence Test, Ipomoea hederacea (IPOHE); set-up: key to percentage damage caused to the plant, IPOHE (five-point scale): 5=81-100%, 4=61-80%, 3=41-60%, 2=21-40%, 1=0-20% damage; settings: evaluated after 13 days
In short: as §1

[4] = tested on: Zea mays (ZEAMX); experiment: Post-emergence Test, Zea mays (ZEAMX); set-up: key to percentage damage caused to the plant, ZEAMX (five-point scale): 5=81-100%, 4=61-80%, 3=41-60%, 2=21-40%, 1=0-20% damage; settings: evaluated after 13 days
In short: as §1

[5] = tested on: Amaranthus retoflexus (AMARE); experiment: Post-emergence Test, Amaranthus retoflexus (AMARE); set-up: key to percentage damage caused to the plant, AMARE (five-point scale): 5=81-100%, 4=61-80%, 3=41-60%, 2=21-40%, 1=0-20% damage; settings: evaluated after 13 days
In short: as §1

[6] = tested on: Amaranthus palmeri (AMAPA); experiment: Post-emergence Test, Amaranthus palmeri (AMAPA); set-up: key: 5=81-100%, 4=61-80%, 3=41-60%, 2=21-40%, 1=0-20% damage; settings: evaluated after 13 days
In short: as §1

[7] = tested on: Amaranthus retoflexus (AMARE); experiment: Pre-emergence Test, Amaranthus retoflexus (AMARE); settings: evaluated after 13 days
[8] = tested on: Ipomoea hederacea (IPOHE); experiment: Pre-emergence Test, Ipomoea hederacea (IPOHE); settings: evaluated after 13 days
[9] = tested on: Echinochloa crus-galli (ECHCG); experiment: Pre-emergence Test, Echinochloa crus-galli (ECHCG); settings: evaluated after 13 days
[10] = tested on: Setaria faberi (SETFA); experiment: Post-emergence Test, Setaria faberi (SETFA); set-up: key to percentage damage caused to the plant, SETFA (five-point scale): 5=81-100%, 4=61-80%, 3=41-60%, 2=21-40%, 1=0-20% damage; settings: 1000 g/ha, evaluated after 13 days
In short: as §1

[11] = tested on: Amaranthus palmeri (AMAPA); experiment: Pre-emergence Test, Amaranthus palmeri (AMAPA); settings: evaluated after 13 days

CCn1c(Cn2ccc(/C=N/OC)n2)cc(=O)c(C(=O)O)c1-c1ccc(Cl)c(Cl)c1 [Compound 204, 2-(3,4-dichlorophenyl)-1-ethyl-6-[[3-[(E)-methoxyiminomethyl]pyrazol-1-yl]methyl]-4-oxo-pyridine-3-carboxylic acid]
2 (2=21-40%): Pre-emergence Test ZEAMX, percentage damage caused to the plant (five-point scale) ([1]; 1000 g/ha) | Post-emergence Test IPOHE, percentage damage caused to the plant (five-point scale) ([3]; 250 g/Ha (*)) | Post-emergence Test ZEAMX, percentage damage caused to the plant (five-point scale) ([4]; 250 g/Ha (*)) | Post-emergence Test AMARE, percentage damage caused to the plant (five-point scale) ([5]; 1000 g/ha) | Pre-emergence Test IPOHE, percentage damage caused to the plant (five-point scale) ([8]; 250 g/Ha (*)) | Pre-emergence Test ECHCG, percentage damage caused to the plant (five-point scale) ([9]; 250 g/Ha (*))
4 (4=61-80%): Pre-emergence Test IPOHE, percentage damage caused to the plant (five-point scale) ([8]; 1000 g/ha) | Pre-emergence Test ECHCG, percentage damage caused to the plant (five-point scale) ([9]; 1000 g/ha) | Post-emergence Test SETFA, percentage damage caused to the plant (five-point scale) [10]
0: Pre-emergence Test AMARE, percentage damage caused to the plant (five-point scale) ([7]; 250 g/Ha (*))
3 (3=41-60%): Post-emergence Test ECHCG, percentage damage caused to the plant (five-point scale) ([2]; 250 g/Ha (*)) | Post-emergence Test IPOHE, percentage damage caused to the plant (five-point scale) ([3]; 1000 g/ha) | Post-emergence Test ZEAMX, percentage damage caused to the plant (five-point scale) ([4]; 1000 g/ha)
1 (1=0-20%): Pre-emergence Test ZEAMX, percentage damage caused to the plant (five-point scale) ([1]; 250 g/Ha (*)) | Post-emergence Test AMARE, percentage damage caused to the plant (five-point scale) ([5]; 250 g/Ha (*)) | Post-emergence Test AMAPA, percentage damage caused to the plant (five-point scale) ([6]; 250 g/Ha (*)) | Post-emergence Test AMAPA, percentage damage caused to the plant (five-point scale) ([6]; 1000 g/ha) | Pre-emergence Test AMARE, percentage damage caused to the plant (five-point scale) ([7]; 1000 g/ha) | Pre-emergence Test AMAPA, percentage damage caused to the plant (five-point scale) ([11]; 250 g/Ha (*)) | Pre-emergence Test AMAPA, percentage damage caused to the plant (five-point scale) ([11]; 1000 g/ha)

CCn1c(Cn2ccc(C(C)=O)n2)cc(=O)c(C(=O)O)c1-c1ccc(Cl)c(Cl)c1 [Compound 180, 6-[(3-acetylpyrazol-1-yl)methyl]-2-(3,4-dichlorophenyl)-1-ethyl-4-oxo-pyridine-3-carboxylic acid]
2 (2=21-40%): Pre-emergence Test AMARE, percentage damage caused to the plant (five-point scale) ([7]; 1000 g/ha)
0: Pre-emergence Test ZEAMX, percentage damage caused to the plant (five-point scale) ([1]; 1000 g/ha) | percentage damage caused to the plant, IPOHE (five-point scale) ([3]; 250 g/Ha) | percentage damage caused to the plant, ZEAMX (five-point scale) ([4]; 250 g/Ha) | percentage damage caused to the plant, AMARE (five-point scale) ([5]; 250 g/Ha) | percentage damage caused to the plant, AMAPA (five-point scale) ([6]; 250 g/Ha) | percentage damage caused to the plant, AMAPA (five-point scale) ([6]; 1000 g/ha) | Pre-emergence Test IPOHE, percentage damage caused to the plant (five-point scale) ([8]; 1000 g/ha)
1 (1=0-20%): percentage damage caused to the plant, ECHCG (five-point scale) [2] | percentage damage caused to the plant, IPOHE (five-point scale) ([3]; 1000 g/ha) | percentage damage caused to the plant, ZEAMX (five-point scale) ([4]; 1000 g/ha) | percentage damage caused to the plant, AMARE (five-point scale) ([5]; 1000 g/ha) | Pre-emergence Test ECHCG, percentage damage caused to the plant (five-point scale) ([9]; 1000 g/ha) | percentage damage caused to the plant, SETFA (five-point scale) [10] | Pre-emergence Test AMAPA, percentage damage caused to the plant (five-point scale) ([11]; 1000 g/ha)

CCn1c(Cn2ccc(C3CC3)n2)cc(=O)c(C(=O)O)c1-c1ccc(Cl)c(Cl)c1 [Compound 179, 6-[(3-cyclopropylpyrazol-1-yl)methyl]-2-(3,4-dichlorophenyl)-1-ethyl-4-oxo-pyridine-3-carboxylic acid]
1 (1=0-20%): percentage damage caused to the plant, AMAPA (five-point scale) ([6]; 250 g/Ha) | Pre-emergence Test ECHCG, percentage damage caused to the plant (five-point scale) ([9]; 250 g/Ha (*))
2 (2=21-40%): Pre-emergence Test AMAPA, percentage damage caused to the plant (five-point scale) ([11]; 1000 g/ha)
4 (4=61-80%): percentage damage caused to the plant, IPOHE (five-point scale) ([3]; 250 g/Ha) | percentage damage caused to the plant, IPOHE (five-point scale) ([3]; 1000 g/ha) | percentage damage caused to the plant, ZEAMX (five-point scale) ([4]; 1000 g/ha) | Pre-emergence Test AMARE, percentage damage caused to the plant (five-point scale) ([7]; 1000 g/ha) | Pre-emergence Test IPOHE, percentage damage caused to the plant (five-point scale) ([8]; 1000 g/ha) | percentage damage caused to the plant, SETFA (five-point scale) [10]
3 (3=41-60%): percentage damage caused to the plant, ECHCG (five-point scale) [2] | percentage damage caused to the plant, ZEAMX (five-point scale) ([4]; 250 g/Ha) | percentage damage caused to the plant, AMARE (five-point scale) ([5]; 1000 g/ha) | percentage damage caused to the plant, AMAPA (five-point scale) ([6]; 1000 g/ha)
5 (5=81-100%): Pre-emergence Test ZEAMX, percentage damage caused to the plant (five-point scale) ([1]; 1000 g/ha) | Pre-emergence Test ECHCG, percentage damage caused to the plant (five-point scale) ([9]; 1000 g/ha)
0: Pre-emergence Test ZEAMX, percentage damage caused to the plant (five-point scale) ([1]; 250 g/Ha (*)) | percentage damage caused to the plant, AMARE (five-point scale) ([5]; 250 g/Ha) | Pre-emergence Test IPOHE, percentage damage caused to the plant (five-point scale) ([8]; 250 g/Ha (*)) | Pre-emergence Test AMAPA, percentage damage caused to the plant (five-point scale) ([11]; 250 g/Ha (*))
